# Laboratory results from ChEMBL document CHEMBL3885881, “DrugMatrix”.
# Species on record: Rattus norvegicus
# Test: DrugMatrix - Regimen: Daily Repeat
# Assay type: toxicity, organism-based, Sprague-Dawley
# Set-up: regimen Daily Repeat, gender Male, age 6-8 weeks
# Conditions: in vivo, po, […], route oral GAVAGE, dose 1.2 mg/Kg, dose level Low; for ABSOLUTE BASOPHIL / ABSOLUTE EOSINOPHIL / ABSOLUTE LYMPHOCYTE / ABSOLUTE MONOCYTE / ABSOLUTE SEGMENTED NEUTROPHIL / BASOPHIL / EOSINOPHIL / ERYTHROCYTE COUNT / HEMATOCRIT / HEMOGLOBIN / LEUKOCYTE COUNT / LYMPHOCYTE / MEAN CORPUSCULAR HEMOGLOBIN / MEAN CORPUSCULAR HEMOGLOBIN CONCENTRATION / MEAN CORPUSCULAR VOLUME / MONOCYTE / NEUTROPHIL / NUCLEATED RED BLOOD CELLS / PLATELET COUNT: tissue Blood; for ALANINE AMINOTRANSFERASE / ALBUMIN / ALKALINE PHOSPHATASE / ASPARTATE AMINOTRANSFERASE / BLOOD UREA NITROGEN / CARBON DIOXIDE / CHLORIDE / CHOLESTEROL / CREATINE PHOSPHOKINASE / CREATININE / GLUCOSE / LACTATE DEHYDROGENASE / LIPASE / PHOSPHORUS / POTASSIUM / SODIUM / TOTAL BILIRUBIN / TOTAL PROTEIN / URIC ACID: tissue Plasma
smiles,measurement,setting,value
CNC(=C[N+](=O)[O-])NCCSCc1csc(CN(C)C)n1 [NIZATIDINE],ABSOLUTE BASOPHIL,"72 h, time 3 day",0 CELLS/uL
same,ABSOLUTE EOSINOPHIL,"72 h, time 3 day",34 CELLS/uL
same,ABSOLUTE LYMPHOCYTE,"72 h, time 3 day",10569 CELLS/uL
same,ABSOLUTE MONOCYTE,"72 h, time 3 day",72 CELLS/uL
same,ABSOLUTE SEGMENTED NEUTROPHIL,"72 h, time 3 day",2425 CELLS/uL
same,BASOPHIL,"72 h, time 3 day",0%
same,EOSINOPHIL,"72 h, time 3 day",0.33%
same,ERYTHROCYTE COUNT,"72 h, time 3 day",5.9 x10E6/uL
same,HEMATOCRIT,"72 h, time 3 day",35.07%
same,HEMOGLOBIN,"72 h, time 3 day",13.63 G/DL
same,LEUKOCYTE COUNT,"72 h, time 3 day",13.1 x10E3/uL
same,LYMPHOCYTE,"72 h, time 3 day",80.33%
same,MEAN CORPUSCULAR HEMOGLOBIN,"72 h, time 3 day",23.13 pg
same,MEAN CORPUSCULAR HEMOGLOBIN CONCENTRATION,"72 h, time 3 day",38.87 G/DL
same,MEAN CORPUSCULAR VOLUME,"72 h, time 3 day",59.5 fL
same,MONOCYTE,"72 h, time 3 day",0.67%
same,NEUTROPHIL,"72 h, time 3 day",18.67%
same,NUCLEATED RED BLOOD CELLS,"72 h, time 3 day",0.67 /100WBC
same,PLATELET COUNT,"72 h, time 3 day",1288.67 x10E3/uL
same,ALANINE AMINOTRANSFERASE,"72 h, time 3 day",58.33 u/L
same,ALBUMIN,"72 h, time 3 day",4.07 G/DL
same,ALKALINE PHOSPHATASE,"72 h, time 3 day",348.67 u/L
same,ASPARTATE AMINOTRANSFERASE,"72 h, time 3 day",87.67 u/L
same,BLOOD UREA NITROGEN,"72 h, time 3 day",12.67 mg/dL
same,CARBON DIOXIDE,"72 h, time 3 day",26 mmol/L
same,CHLORIDE,"72 h, time 3 day",101 MEQ/L
same,CHOLESTEROL,"72 h, time 3 day",72.67 mg/dL
same,CREATINE PHOSPHOKINASE,"72 h, time 3 day",343.33 u/L
same,CREATININE,"72 h, time 3 day",0.16 mg/dL
same,GLUCOSE,"72 h, time 3 day",162.67 mg/dL
same,LACTATE DEHYDROGENASE,"72 h, time 3 day",208 u/L
same,LIPASE,"72 h, time 3 day",10 u/L
same,PHOSPHORUS,"72 h, time 3 day",13.27 mg/dL
same,POTASSIUM,"72 h, time 3 day",7.68 MEQ/L
same,SODIUM,"72 h, time 3 day",143.37 MEQ/L
same,TOTAL BILIRUBIN,"72 h, time 3 day",0.2 mg/dL
same,TOTAL PROTEIN,"72 h, time 3 day",5.6 G/DL
same,URIC ACID,"72 h, time 3 day",2 mg/dL
same,ABSOLUTE BASOPHIL,"120 h, time 5 day",0 CELLS/uL
same,ABSOLUTE EOSINOPHIL,"120 h, time 5 day",0 CELLS/uL
same,ABSOLUTE LYMPHOCYTE,"120 h, time 5 day",14620.33 CELLS/uL
same,ABSOLUTE MONOCYTE,"120 h, time 5 day",0 CELLS/uL
same,ABSOLUTE SEGMENTED NEUTROPHIL,"120 h, time 5 day",2246.33 CELLS/uL
same,BASOPHIL,"120 h, time 5 day",0%
same,EOSINOPHIL,"120 h, time 5 day",0%
same,ERYTHROCYTE COUNT,"120 h, time 5 day",5.78 x10E6/uL
same,HEMATOCRIT,"120 h, time 5 day",35.77%
same,HEMOGLOBIN,"120 h, time 5 day",14.27 G/DL
same,LEUKOCYTE COUNT,"120 h, time 5 day",16.87 x10E3/uL
same,LYMPHOCYTE,"120 h, time 5 day",87%
same,MEAN CORPUSCULAR HEMOGLOBIN,"120 h, time 5 day",24.63 pg
same,MEAN CORPUSCULAR HEMOGLOBIN CONCENTRATION,"120 h, time 5 day",39.9 G/DL
same,MEAN CORPUSCULAR VOLUME,"120 h, time 5 day",61.87 fL
same,MONOCYTE,"120 h, time 5 day",0%
same,NEUTROPHIL,"120 h, time 5 day",13%
same,NUCLEATED RED BLOOD CELLS,"120 h, time 5 day",0 /100WBC
same,PLATELET COUNT,"120 h, time 5 day",1147.67 x10E3/uL
same,ALANINE AMINOTRANSFERASE,"120 h, time 5 day",54.33 u/L
same,ALBUMIN,"120 h, time 5 day",4.27 G/DL
same,ALKALINE PHOSPHATASE,"120 h, time 5 day",454.67 u/L
same,ASPARTATE AMINOTRANSFERASE,"120 h, time 5 day",86.67 u/L
same,BLOOD UREA NITROGEN,"120 h, time 5 day",11.67 mg/dL
same,CARBON DIOXIDE,"120 h, time 5 day",27 mmol/L
same,CHLORIDE,"120 h, time 5 day",101.33 MEQ/L
same,CHOLESTEROL,"120 h, time 5 day",63.33 mg/dL
same,CREATINE PHOSPHOKINASE,"120 h, time 5 day",239.33 u/L
same,CREATININE,"120 h, time 5 day",0.2 mg/dL
same,GLUCOSE,"120 h, time 5 day",154 mg/dL
same,LACTATE DEHYDROGENASE,"120 h, time 5 day",176.67 u/L
same,LIPASE,"120 h, time 5 day",10 u/L
same,PHOSPHORUS,"120 h, time 5 day",11.33 mg/dL
same,POTASSIUM,"120 h, time 5 day",6.56 MEQ/L
same,SODIUM,"120 h, time 5 day",143.2 MEQ/L
same,TOTAL BILIRUBIN,"120 h, time 5 day",0.17 mg/dL
same,TOTAL PROTEIN,"120 h, time 5 day",5.87 G/DL
same,URIC ACID,"120 h, time 5 day",1.7 mg/dL
